Here are results for 78 compounds from PMC12040169 (PLOS Biology, 2025).

A short description of the series: in vitro. The following applies: human, hela cells, % viability.

As to `O=C(CSc1ccccc1)Nc1cc(Cl)ccc1O` [CBK265837], the viability at 28.5 h, 10 µM worked out at 109%.

For `O=C1CCCN1CCCNc1ncnc2c1cnn2-c1ccc(Cl)cc1` [CBK265838], the viability at 28.5 h, 10 µM worked out at 97.1%.

With `CCN(Cc1ccccc1)Cc1c(O)ccc2c(=O)c(-c3ccccc3OC)c(C(F)(F)F)oc12` [CBK265839], the viability at 28.5 h, 10 µM is 90%.

For the compound `Cc1ccc(S(=O)(=O)NC2c3cccc4cccc(c34)C2Sc2ccccn2)cc1` (stereo not drawn) [CBK265840], the viability at 28.5 h, 10 µM was determined as 91.6%.

In the case of `Cc1cc(C)c(S(=O)(=O)NCCN2CCN(S(=O)(=O)c3c(C)cc(C)cc3C)CC2)c(C)c1` [CBK265842], the viability at 28.5 h, 10 µM amounted to 96%.

`NC(=O)c1cc(-c2ccccc2)sc1NC(=O)C(Cc1ccccc1)N1C(=O)c2ccccc2C1=O` (stereo not drawn) [CBK265843]: the viability at 28.5 h, 10 µM came to 104%.

Turning to `c1ccc(-c2noc(CN3CCN(C(c4ccccc4)c4ccccc4)CC3)n2)cc1` [CBK265844], the viability at 28.5 h, 10 µM was determined as 101%.

Turning to `CS(=O)(=O)NC1c2cccc3cccc(c23)C1N1CCOCC1` (stereo not drawn) [CBK265845], the viability at 28.5 h, 10 µM turned out to be 102%.

Turning to `Cc1ccccc1OCc1nnc(SCc2c(Cl)cccc2[N+](=O)[O-])n1C` [CBK265846], the viability at 28.5 h, 10 µM is 92.4%.

For `O=C(Nc1ccc(S(=O)(=O)N2CCCC2)cc1)c1ccc(COc2ccc3c(c2)CCC3)o1` [CBK265847], the viability at 28.5 h, 10 µM amounted to 89.1%.

Take `COc1ccc(-n2ncc3c(N4CCN(C)CC4)ncnc32)cc1` [CBK265848]: the viability at 28.5 h, 10 µM is 89%.

Regarding `Cc1ccccc1OCc1nnc(SCC(=O)N2CCOCC2)n1C` [CBK265850], the viability at 28.5 h, 10 µM amounted to 96.1%.

In the case of `CN(C)C1c2cccc3cccc(c23)C1NS(C)(=O)=O` (stereo not drawn) [CBK265851], the viability at 28.5 h, 10 µM came out at 110%.

As to `NS(=O)(=O)c1ccc(CCNC2=CC(=O)CC(c3ccco3)C2)cc1` (stereo not drawn) [CBK265852], the viability at 28.5 h, 10 µM worked out at 97%.

As to `Cc1ccnc(NS(=O)(=O)c2ccc(NC(=O)CSc3ccc(Cl)cc3)cc2)n1` [CBK265854], the viability at 28.5 h, 10 µM is 98.9%.

With `Cc1nn(Cc2ccc(C(=O)Nc3c(C)nn(Cc4ccc(Cl)c(Cl)c4)c3C)o2)c(C)c1Br` [CBK265855], the viability at 28.5 h, 10 µM stood at 83.5%.

With `Cc1ccc(N(Cc2ccco2)C(=O)c2cccc(S(=O)(=O)N3CCOCC3)c2)cc1` [CBK265857], the viability at 28.5 h, 10 µM came out at 96.4%.

With `N#CCCSCc1ccc(C(=O)O)o1` [CBK265858], the viability at 28.5 h, 10 µM is 115%.

On to `CCn1c(SCC(=O)Nc2ccccc2OC)nnc1-c1ccc(N)cc1` [CBK265859], for which the viability at 28.5 h, 10 µM came out at 111%.

With `CCOc1ccccc1NC(=O)CNS(=O)(=O)c1ccccc1` [CBK265860], the viability at 28.5 h, 10 µM was determined as 86.9%.

Take `NC(=O)C1(N2CCCCC2)CCN(C(=S)Nc2ccc(Oc3ccccc3)cc2)CC1` [CBK265862]: the viability at 28.5 h, 10 µM came out at 84.7%.

Take `COc1ccc(NC(=O)CCN2C(=O)c3ccccc3S2(=O)=O)cc1` [CBK265863]: the viability at 28.5 h, 10 µM turned out to be 87.1%.

Take `O=C(O)CCC(=O)NCC1OCCc2ccccc21` (stereo not drawn) [CBK265865]: the viability at 28.5 h, 10 µM stood at 89%.

Turning to `O=C(c1ccccc1Cl)N1CCN(c2ccc([N+](=O)[O-])c(NCc3cccnc3)c2)CC1` [CBK265866], the viability at 28.5 h, 10 µM stood at 108%.

In the case of `O=C(Cc1ccc(Cl)cc1)Nc1ccc(Oc2ccc3c(c2)C(=O)NC3=O)cc1` [CBK265869], the viability at 28.5 h, 10 µM was 87.8%.

Take `Cc1ccc(S(=O)(=O)NC2c3cccc4cccc(c34)C2Sc2nncn2N)cc1` (stereo not drawn) [CBK265873]: the viability at 28.5 h, 10 µM came out at 112%.

Regarding `COc1cc(CNn2cnnc2S)ccc1OCC(N)=O` [CBK265877], the viability at 28.5 h, 10 µM worked out at 90%.

Take `COc1ccc(-n2ncc3c(N4CCN(Cc5ccccc5)CC4)ncnc32)cc1` [CBK265879]: the viability at 28.5 h, 10 µM is 88.8%.

For the compound `COc1ccc(-c2cc(-c3nnc(S)n3-c3ccccc3Cl)[nH]n2)cc1` [CBK265880], the viability at 28.5 h, 10 µM stood at 100%.

Take `NCCNc1ccc([N+](=O)[O-])c(Sc2nc3ccccc3[nH]2)c1` [CBK265882]: the viability at 28.5 h, 10 µM was 106%.

`COc1cc(NC(=S)NCCN2CCOCC2)c(OC)cc1Cl` [CBK265888]: the viability at 28.5 h, 10 µM was 101%.

On to `CCn1cc(Br)c(C(=O)Nc2nccs2)n1` [CBK265890], for which the viability at 28.5 h, 10 µM was 96.8%.

As for `NS(=O)(=O)c1ccc(NC(=S)N2CCN(CCO)CC2)cc1` [CBK265891], the viability at 28.5 h, 10 µM turned out to be 87.5%.

For the compound `Cc1cc(C)c2c(n1)nn1c(C)c(CCC(=O)O)c(C)nc21` [CBK265892], the viability at 28.5 h, 10 µM stood at 98.2%.

As for `O=C(Nc1ccc(Br)c2cccnc12)c1ccc(Cn2cc(Cl)cn2)o1` [CBK265893], the viability at 28.5 h, 10 µM stood at 88.2%.

On to `COc1ccc(C(=O)Nc2ccccc2C(=O)Nc2cccc([N+](=O)[O-])c2)cc1` [CBK265894], for which the viability at 28.5 h, 10 µM came out at 101%.

In the case of `NC(=O)C1(N2CCCCC2)CCN(Cc2nc(O)c3ccccc3n2)CC1` [CBK265896], the viability at 28.5 h, 10 µM was found to be 103%.

Regarding `O=C(Nc1ccccc1)c1ccc(COc2ccc3ccccc3c2)o1` [CBK265897], the viability at 28.5 h, 10 µM came to 113%.

Take `Cn1c(Cc2cccc3ccccc23)nnc1SCc1ccc([N+](=O)[O-])cc1` [CBK265898]: the viability at 28.5 h, 10 µM stood at 93.6%.

In the case of `CC(=O)Nc1cccc(NC(=O)c2cccc(Cn3cc(Cl)cn3)c2)c1` [CBK265899], the viability at 28.5 h, 10 µM stood at 90.5%.

For the compound `O=C(CSc1n[nH]c(-c2ccccc2Cl)n1)Nc1ccccc1F` [CBK265901], the viability at 28.5 h, 10 µM turned out to be 82.9%.

In the case of `O=C(Nc1ccccc1-c1ccccc1)C1CN(S(=O)(=O)c2ccccc2)CCN1S(=O)(=O)c1ccccc1` (stereo not drawn) [CBK265902], the viability at 28.5 h, 10 µM amounted to 91.1%.

`Cc1cccc(C(=O)Nc2ccccc2C(=O)Nc2cccc(C(=O)O)c2C)c1` [CBK265911]: the viability at 28.5 h, 10 µM amounted to 99.4%.

Turning to `O=C1C2(c3ccccc3)CN(CCCO)CC1(c1ccccc1)CN(CCCO)C2` [CBK265912], the viability at 28.5 h, 10 µM turned out to be 109%.

For the compound `CC(C)NS(=O)(=O)c1ccc(OCC(=O)Nc2ccc3c(c2)OCCO3)cc1` [CBK265915], the viability at 28.5 h, 10 µM stood at 106%.

As for `CCOC(=O)Cn1c(CCC(=O)O)ccc1-c1ccc(F)cc1` [CBK265916], the viability at 28.5 h, 10 µM was determined as 97.8%.

Consider `CCOC(=O)c1c(-c2ccc(C)o2)csc1NC(=O)CN1CCCCC1C` (stereo not drawn) [CBK265917], for which the viability at 28.5 h, 10 µM came out at 105%.

`COC(=O)c1c(C)[nH]c(C(=O)CSc2ncnc3scc(-c4ccccc4)c23)c1C` [CBK265918]: the viability at 28.5 h, 10 µM is 95.5%.

For `Cc1nnc(SCC(=O)N2c3ccccc3Sc3ccccc32)n1N` [CBK265920], the viability at 28.5 h, 10 µM was 96.5%.

Consider `COc1ccc(S(=O)(=O)N(C)CC(=O)Nc2ccc(S(N)(=O)=O)cc2)cc1` [CBK265922], for which the viability at 28.5 h, 10 µM is 102%.

As to `CCCn1nnc(NC(=O)COc2ccc3ccccc3c2)n1` [CBK265923], the viability at 28.5 h, 10 µM was 101%.

Turning to `NC1=C(c2nc3ccccc3s2)C(=O)CN1CCCN1CCOCC1` [CBK265925], the viability at 28.5 h, 10 µM was 109%.

`COc1ccc(-c2ccc(CCC(=O)O)n2CCc2ccccc2)cc1` [CBK265929]: the viability at 28.5 h, 10 µM is 115%.

As to `NC(=O)C1CCN(C(=O)CSc2nc3ccccc3o2)CC1` [CBK265930], the viability at 28.5 h, 10 µM is 97.8%.

Regarding `Cc1ccc(NC(=O)Cn2cnc3sc(C(=O)Nc4ccccc4)c(C)c3c2=O)cc1` [CBK265931], the viability at 28.5 h, 10 µM stood at 101%.

Consider `Cc1cc(C)cc(N(CC(=O)Nc2ccccc2-c2ccccc2)S(=O)(=O)c2ccccc2)c1` [CBK265933], for which the viability at 28.5 h, 10 µM came to 92.4%.

With `O=C(O)CCc1ccc(-c2ccc(F)cc2)n1CCc1ccccc1` [CBK265936], the viability at 28.5 h, 10 µM was 108%.

With `O=C(CSc1ncccn1)Nc1sc2c(c1C(=O)Nc1ccccc1)CCCC2` [CBK265939], the viability at 28.5 h, 10 µM amounted to 93%.

On to `Cn1c(=O)c2c(nc(Oc3ccccc3Cl)n2Cc2cccc(C(F)(F)F)c2)n(C)c1=O` [CBK265940], for which the viability at 28.5 h, 10 µM stood at 89.7%.

Regarding `NC(=S)Nn1c(CCC(=O)O)ccc1-c1ccccc1` [CBK265942], the viability at 28.5 h, 10 µM amounted to 100%.

Consider `Cc1nc(SCC(=O)N2CCC(C)CC2)c2c3c(sc2n1)CCC3` [CBK265944], for which the viability at 28.5 h, 10 µM amounted to 86.1%.

Consider `COc1cc(CO)cc(I)c1OCC(=O)Nc1ccccc1` [CBK265950], for which the viability at 28.5 h, 10 µM came out at 112%.

Turning to `OCCOCCNc1ncnc2sc(-c3ccccc3)cc12` [CBK265951], the viability at 28.5 h, 10 µM was 76%.

As to `CC(=O)NC(C)(COc1nonc1C)COc1nonc1C` [CBK265955], the viability at 28.5 h, 10 µM was determined as 90.3%.

Turning to `O=C(Nc1cccc(NS(=O)(=O)c2ccc(Cl)cc2)c1)c1ccco1` [CBK265956], the viability at 28.5 h, 10 µM was 91.2%.

On to `O=C(CSCc1ccccc1Br)Nc1ccccc1-c1ccccc1` [CBK265959], for which the viability at 28.5 h, 10 µM was found to be 88.4%.

With `Cc1ccc(S(=O)(=O)N2CCN(C(=O)CSc3nnc4sc5ccccc5n34)CC2)cc1` [CBK265961], the viability at 28.5 h, 10 µM turned out to be 90.5%.

`CCc1ccccc1NC(=O)Cn1ncnc1Sc1nc2c(c(=O)n(C)c(=O)n2C)n1C` [CBK265963]: the viability at 28.5 h, 10 µM was 87.6%.

Consider `Cc1ccc(OCC(=O)Nc2cc(Cl)ccc2O)cc1C` [CBK265968], for which the viability at 28.5 h, 10 µM amounted to 108%.

For the compound `Cn1c(SCCOc2ccccc2Cl)nnc1-c1ccncc1` [CBK265969], the viability at 28.5 h, 10 µM was found to be 111%.

Consider `O=C(O)CC(C(=O)OC1CCCCC1)N1CCOCC1` (stereo not drawn) [CBK265970], for which the viability at 28.5 h, 10 µM worked out at 95.1%.

With `NC(=O)C1CCN(C(=O)CN2CCN(Cc3ccccc3)CC2)CC1` [CBK265971C], the viability at 28.5 h, 10 µM was found to be 82.8%.

Consider `COc1ccc(CN(C(=O)CCN2C(=O)c3ccccc3S2(=O)=O)c2ccccc2O)cc1` [CBK265973], for which the viability at 28.5 h, 10 µM turned out to be 99.4%.

`COC(=O)c1ccccc1NC(=O)CNS(=O)(=O)c1c(C)cc(C)cc1C` [CBK265974]: the viability at 28.5 h, 10 µM worked out at 104%.

For the compound `COC(=O)c1c(-c2ccc(F)cc2)csc1NC(=O)CSc1ncnc2sc3c(c12)CCC3` [CBK265976], the viability at 28.5 h, 10 µM was 103%.

Regarding `O=C(Cc1ccc([N+](=O)[O-])cc1)Nc1ccc(O)cc1C(=O)O` [CBK265977], the viability at 28.5 h, 10 µM came to 97.6%.

`COC(=O)c1cc(-c2ccccc2)sc1NC(=O)CSc1ncnc2sc3c(c12)CCC3` [CBK265978]: the viability at 28.5 h, 10 µM was found to be 97.4%.

Take `COc1ccc(Br)cc1C(=O)NC(=S)Nc1cc(Cl)c(O)c(Cl)c1` [CBK265979]: the viability at 28.5 h, 10 µM came out at 89.6%.
